Results as given in patent US20250188075A1, “SUBSTITUTED HETEROCYCLIC CSNK1 INHIBITORS” (The Broad Institute, Inc., priority 2022, published 2025).
Like-named read-outs stand apart in the source and are kept apart here.

Tests used:
[1] = tested on: HCT 116 cells; assay: HCT 116 cell proliferation assay, CTG; assay type: cell-based; conditions: HCT 116, CTG, 96 h, median, read-out: 2D-PROLI HCT 116 CTG 96 h, IC50 - [mol/l] (median)
Protocol: 400 HCT 116 cells/30 μL/well were plated in growth medium (DMEM/Ham's F12, 10% FCS) in a 384-well plate (CORNING #3571) at day 1. Reference plate was seeded for time zero determination. All plates were incubated overnight 37° C. Day 2: test compound was added in 7-step dilution and incubate at 37° C. for 96 h. Day 2: time zero plate: 30 μL/well CTG solution (Promega Cell Titer Glo solution; catalog #G755B and G756B) were added, incubated for 30 minutes, read luminescence on PheraStar. Day 6: compound treated plates: 30 μL/well CTG solution (Promega Cell Titer Glo solution; catalog #G755B and G756B) were added, incubated for 30 minutes, luminescence was read on PheraStar. Proliferation was calculated after subtracting time zero luminescence values from day 6 values and comparing to untreated wells. The IC50 values were determined using the four parameter fit.

[2] = Solubility assay (thermodynamic solubility); assay type: physicochemical; conditions: aqueous buffer; for solubility thermodynamic at 24 h: thermodynamic from solid, mean; for Thermodynamic Solubility [mg/l] (mean) / Thermodynamic Solubility [μmol/L] (mean): 24 h
Protocol: Solubility of solid compound in aqueous buffer was determined by an equilibrium shake flask method. A saturated solution of drug in solvent (˜2 mg/ml solvent) was prepared and the solution was mixed for 24 h to ensure that equilibrium has been reached. The solution was centrifuged to remove the insoluble fraction and the concentration of the compound in solution was determined by HPLC-UV using a standard calibration curve (Kerns, E. H. et al., Solubility Methods in: Drug-like Properties: Concepts, Structure Design and Methods, p 276-286. Burlington, MA: Academic Press 2008).

[3] = biological target: human CSNK1G3 (Homo sapiens (Human), UniProt Q9Y6M4); assay: CSNK1G3 assay (ADP-Glo); assay type: biochemical; conditions: median, read-out: CSNK1G IC50 [mol/l] (median)
Chain of human CSNK1G3 (Q9Y6M4 whole entry): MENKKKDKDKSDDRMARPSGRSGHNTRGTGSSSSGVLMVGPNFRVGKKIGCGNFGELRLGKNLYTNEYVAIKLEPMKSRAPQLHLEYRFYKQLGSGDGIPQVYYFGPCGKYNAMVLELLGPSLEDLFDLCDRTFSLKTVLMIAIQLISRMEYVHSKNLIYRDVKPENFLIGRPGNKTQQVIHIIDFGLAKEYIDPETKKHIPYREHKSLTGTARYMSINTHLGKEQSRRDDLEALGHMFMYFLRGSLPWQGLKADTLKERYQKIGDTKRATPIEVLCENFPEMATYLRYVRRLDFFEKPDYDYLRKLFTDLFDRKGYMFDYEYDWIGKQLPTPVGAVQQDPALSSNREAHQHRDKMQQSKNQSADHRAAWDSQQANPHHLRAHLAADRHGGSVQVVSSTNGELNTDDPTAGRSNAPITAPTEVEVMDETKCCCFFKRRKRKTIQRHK
Protocol: CSNK1G3-inhibitory activity of compounds of the present invention in presence of 1 μM adenosine-tri-phosphate (ATP) was quantified employing the CSNK1G3 assay as described in the following paragraphs. In essence, the enzyme activity is measured by quantification of the adenosine-di-phosphate (ADP), which is generated as a co-product of the enzyme reaction, via the “ADP-Glo™ Kinase Assay” kit from the company Promega. This detection system works as follows: In a first step the ATP not consumed in the kinase reaction is quantitatively converted to CAMP employing an adenylate cyclase (“ADP-Glo-reagent”), then the adenylate cyclase is stopped and the ADP generated in the kinase reaction converted to ATP which generates in a luciferase-based reaction a glow-luminescence signal (“Kinase Detection Reagent”).
Recombinant fusion protein of N-terminal Glutathion-S-Transferase (GST) and full-length human CSNK1G3, expressed by baculovirus infected insect cells and purified via Glutathion affinity chromatography, was purchased from Life Technologies (product no. PV3838) and used as enzyme. As substrate for the kinase reaction the biotinylated peptide biotin-Ahx-KRRRAL-pS-VASLPGL (C-terminus in amide form) was used which can be purchased e.g. from the company Biosyntan (Berlin-Buch, Germany).
For the assay 50 nl of a 100 fold concentrated solution of the test compound in DMSO was pipetted into a white 1536-well microtiter plate (Greiner Bio-One, Frickenhausen, Germany), 2 μL of a solution of CSNK1G3 in aqueous assay buffer [50 mM HEPES pH 7.5, 10% (v/v) glycerol, 10 mM MgCl2, 50 mM NaCl, 1 mM dithiothreitol, 0.01% (w/v) bovine serum albumin, 0.01% (v/v) Triton X-100] were added and the mixture was incubated for 15 min at 22° C. to allow pre-binding of the test compounds to the enzyme before the start of the kinase reaction. Then the kinase reaction was started by the addition of 3 μL of a solution of ATP ([…]=>final conc. in the 5 μL assay volume is 1 M) and peptide substrate (50 μM=>final conc. in the 5 μL assay volume is 30 μM) in assay buffer and the resulting mixture was incubated for a reaction time of 30 min at 22° C. The concentration of CSNK1G3 was adjusted depending of the activity of the enzyme lot and was chosen appropriate to have the assay in the linear range, a typical concentration is about 0.06 ng/μL. The reaction was stopped by the addition of 2.5 μL of “ADP-Glo-reagent” (1:1.5 fold diluted with water) and the resulting mixture was incubated at 22° C. for 1 h to convert the ATP not consumed in the kinase reaction completely to CAMP. Subsequently 2.5 μL of the “kinase detection reagent” (1.2 fold more concentrated than recommended by the producer) were added, the resulting mixture was incubated at 22° C. for 1 h and then the luminescence measured with a suitable measurement instrument (e.g. Viewlux™ from Perkin-Elmer). The amount of emitted light was taken as a measure for the amount of ADP generated and thereby for the activity of the CSNK1G3.
The data were normalised (enzyme reaction without inhibitor=0% inhibition, all other assay components but no enzyme=100% inhibition).

[4] = tested on: HT-29 cells; assay: HT29 cell proliferation assay, CTG method; assay type: cell-based; conditions: HT-29, CTG, 96 h, median, read-out: 2D-PROLI HT-29 CTG 96 h, IC50 - [mol/l] (median)
Protocol: CELL PROLIFERATION ASSAY CTG METHOD, 384-well version: Day 1: plated 400 cells/30 μL/well in growth medium (DMEM/Ham's F12; (Biochrom; #FG 4815, mit stabilem Glutamin)+FCS (final: 10%); (Biochrom; #S 0415)) in 384-well black plates (Corning #3571). Plated sister wells in a separate plate for time zero determination. Incubated all plates overnight at 37° C. Day 2: added test compounds in serial dilutions using the HP D300 Digital Dispenser and incubated at 37° C. for 96 h. Measured time zero plate: add 30 μL/well CTG solution (Promega CellTiter-Glo solution (catalog #G7573)) to wells in time zero plate; incubated for 2 minutes in a orbital shaker to induce cell lysis; allowed the plate to incubate at room temperature for additional 10 min to stabilize luminescent signal and read luminescence on PheraStar (rapid mode—0.02 sec/well; GAIN 3000). Day 6: Added 30 μL/well CTG solution to all test wells, incubated for 2 minutes in a orbital shaker to induce cell lysis; allowed the plate to incubate at room temperature for additional 10 min to stabilize luminescent signal and read luminescence on PheraStar (rapid mode—0.02 sec/well; GAIN 3000 Proliferation IC50s were calculated using the DRC application in ShiNy Analysis Platform-SNAP.”

[5] = read-out: Thermodynamic Solubility [mg/l] (mean)
[6] = read-out: Thermodynamic Solubility [μmol/L] (mean)

SMILES | IC50 ([1]; Homo sapiens) | solubility thermodynamic at 24 h [2, 5] | solubility thermodynamic at 24 h [2, 6] | IC50 [3] | IC50 ([4]; Homo sapiens) | IC50 [1] | Thermodynamic Solubility [mg/l] (mean) [2] | Thermodynamic Solubility [μmol/L] (mean) [2] | IC50 [4]
Cc1nocc1CC(=O)Nc1cc(-c2[nH]c3cccnc3c2-c2ccccn2)ccn1 [Example 30, 2-(3-methylisoxazol-4-yl)-N-[4-[3-(2-pyridyl)-^1H-pyrrolo[3,2-b]pyridin-2-yl]-2-pyridyl]acetamide] | 1140 nM | 5.8 mg/L | 14.1 µmol/L | 68.9 nM | 1650 nM | – | – | – | –
O=C(Cc1cc(C2CC2)on1)Nc1cc(-c2[nH]c3cccnc3c2-c2ccccn2)ccn1 [Example 27, 2-(5-cyclopropylisoxazol-3-yl)-N-[4-[3-(2-pyridyl)-^1H-pyrrolo[3,2-b]pyridin-2-yl]-2-pyridyl]acetamide] | 489 nM | < 0.1 mg/L | < 0.23 µmol/L | 19.7 nM | 338 nM | – | – | – | –
O=C(Nc1cc(-c2[nH]c3ccc(F)nc3c2-c2ccccn2)ccn1)[C@@H](CC(F)F)c1ccc(F)cc1 [Example C2, reference compound] | – | – | – | 2.4 nM | – | 184 nM | 0.20 mg/L | 0.40 µmol/L | 88.8 nM
Cc1ncc(CC(=O)Nc2cc(-c3[nH]c4cccnc4c3-c3ccccn3)ccn2)o1 [Example 24, 2-(2-methyloxazol-5-yl)-N-[4-[3-(2-pyridyl)-^1H-pyrrolo[3,2-b]pyridin-2-yl]-2-pyridyl]acetamide] | 418 nM | 26.3 mg/L | 64.1 µmol/L | 39.9 nM | 481 nM | – | – | – | –
O=C(Cc1ccno1)Nc1cc(-c2[nH]c3cccnc3c2-c2ccccn2)ccn1 [Example 23, 2-isoxazol-5-yl-N-[4-[3-(2-pyridyl)-^1H-pyrrolo[3,2-b]pyridin-2-yl]-2-pyridyl]acetamide] | 553 nM | 59.5 mg/L | 150 µmol/L | 27.3 nM | 768 nM | – | – | – | –
Cn1nc(CC(=O)Nc2cc(-c3[nH]c4cccnc4c3-c3ccccn3)ccn2)cc1C(F)(F)F [Example 21, 2-[1-methyl-5-(trifluoromethyl)pyrazol-3-yl]-N-[4-[3-(2-pyridyl)-^1H-pyrrolo[3,2-b]pyridin-2-yl]-2-pyridyl]acetamide] | 362 nM | < 0.1 mg/L | < 0.21 µmol/L | 29.7 nM | 222 nM | – | – | – | –
Cn1cc(C(CC(F)F)C(=O)Nc2cc(-c3[nH]c4cccnc4c3-c3ccccn3)ccn2)cn1 (stereo not drawn) [Example 19, 4,4-difluoro-2-(1-methylpyrazol-4-yl)-N-[4-[3-(2-pyridyl)-^1H-pyrrolo[3,2-b]pyridin-2-yl]-2-pyridyl]butanamide] | 1680 nM | 84 mg/L | 177 µmol/L | 62.7 nM | 1240 nM | – | – | – | –
Cc1nc(CC(=O)Nc2cc(-c3[nH]c4cccnc4c3-c3ccccn3)ccn2)co1 [Example 25, 2-(2-methyloxazol-4-yl)-N-[4-[3-(2-pyridyl)-^1H-pyrrolo[3,2-b]pyridin-2-yl]-2-pyridyl]acetamide] | 985 nM | 23.1 mg/L | 56.3 µmol/L | 64.4 nM | 630 nM | – | – | – | –
O=C(Nc1cc(-c2[nH]c3nccnc3c2-c2ccccn2)ccn1)[C@@H](CC(F)F)c1ccc(F)cc1 [Example C1, reference compound] | – | – | – | 6.54 nM | – | 429 nM | 9.60 mg/L | 21.55 µmol/L | 206 nM
O=C(Cc1ccon1)Nc1cc(-c2[nH]c3cccnc3c2-c2ccccn2)ccn1 [Example 10, 2-isoxazol-3-yl-N-[4-[3-(2-pyridyl)-^1H-pyrrolo[3,2-b]pyridin-2-yl]-2-pyridyl]acetamide] | 848 nM | 15.4 mg/L | 38.9 µmol/L | 33 nM | 797 nM | – | – | – | –
Cc1cc(CC(=O)Nc2cc(-c3[nH]c4cccnc4c3-c3ccccn3)ccn2)on1 [Example 13, 2-(3-methylisoxazol-5-yl)-N-[4-[3-(2-pyridyl)-^1H-pyrrolo[3,2-b]pyridin-2-yl]-2-pyridyl]acetamide] | 626 nM | 65.9 mg/L | 161 µmol/L | 28.6 nM | 442 nM | – | – | – | –
Cc1cc(CC(=O)Nc2cc(-c3[nH]c4cccnc4c3-c3ccccn3)ccn2)no1 [Example 26, 2-(5-methylisoxazol-3-yl)-N-[4-[3-(2-pyridyl)-^1H-pyrrolo[3,2-b]pyridin-2-yl]-2-pyridyl]acetamide] | 496 nM | 6.1 mg/L | 14.9 µmol/L | 26.5 nM | 466 nM | – | – | – | –
Cc1cc(CC(=O)Nc2cc(-c3[nH]c4cccnc4c3-c3ccccn3)ccn2)n(C)n1 [Example 14] | 544 nM | 4.6 mg/L | 10.9 µmol/L | 35.4 nM | 508 nM | – | – | – | –
O=C(Cc1cnc2ccccc2n1)Nc1cc(-c2[nH]c3cccnc3c2-c2ccccn2)ccn1 [Example 6, N-[4-[3-(2-pyridyl)-^1H-pyrrolo[3,2-b]pyridin-2-yl]-2-pyridyl]-2-quinoxalin-2-yl-acetamide] | 91.1 nM | – | – | 7.89 nM | 125 nM | – | – | – | –
O=C(Cc1cnco1)Nc1cc(-c2[nH]c3cccnc3c2-c2ccccn2)ccn1 [Example 4] | 535 nM | 25.2 mg/L | 63.7 µmol/L | – | 588 nM | – | – | – | –
